Reference: patent US6458767B1, “Use of peptides inhibitory for thrombospondin dependent TGF-β activation in the treatment of kidney disease” (The UAB Research Foundation, priority 1994, dated 2002)

Tests used:
TSP1 null mice = details: literature; cited from earlier work
[1] = system: rats with anti-Thy1 disease; experiment: Functional parameters (proteinuria, creatinine clearance, blood urea nitrogen, systolic blood pressure) in the anti-Thy1 model; format: in vivo, rat
Text: (§1) Experimental design. Experimental mesangial proliferative glomerulonephritis was induced using the monoclonal mouse anti-Thy1 antibody OX-7. Peptides were continuously infused intravenously (i.v.) via jugular vein using osmotic minipumps starting sixteen hours after disease induction. The effects of the hexapeptide AAWSHW (SEQ ID NO:22) (that interferes with the TSP1-mature TGF-β interaction) or the LSKL-peptide (SEQ ID NO:21) (that blocks the TSP1-LAP interaction) were compared to a control peptide (SLLK) in the anti-Thy1 model. Tissues from different time points (days three, five, eight) of this experiment were analyzed in regard to mesangiolysis, macrophage-influx, MC-proliferation, MC-activation, microaneurysm and matrix formation, GEN proliferation, TSP1, TGF-β1 and 2, as well as TGF-βRI and RII. Functional parameters such as blood pressure, proteinuria, and creatinine clearance were also determined. On day eight, glomerular secretion of active TGF-β was determined in individual animals by incubating isolated glomeruli for twenty-four hours in DMEM and measuring TGF-β activity in glomerular supernatants using the NRK-bioassay.
(§2) Animal model Experimental mesangial proliferative glomerulonephritis (anti-Thy1 model) was induced in Sprague Dawley rats (180-200 g; Charles River, Sulzfeld, Germany) by a single injection of 1 mg/kg of the mouse monoclonal anti-Thy1 antibody OX-7 (European Collection of Animal Cell Culture, Salisbury, England). In this animal model, complete anti-Thy1 antibody binding occurs within an hour (Johnson et al. (1991) Am. J. Pathol. 138 (2), 313-21). To avoid potential interference of the LAP-peptides with anti-Thy1 antibody binding and subsequent mesangiolysis, the peptide treatment was started sixteen hours after disease induction, when binding of the anti-Thy1 antibody to the mesangium and subsequent mesangiolysis had already occurred. The peptides used in this study were synthesized, purified, and analyzed as described elsewhere (Crawford et al. (1998) Cell 93, 1159-1170).
(§3) Renal biopsies as described previously (Hugo et al. (1997) J. Clin. Invest. 100, 786-794) were performed on days three and five, and the experiment was finished on day eight. To determine DNA incorporation into proliferating cells, each animal was injected intravenously with BrdU (50 mg/kg bw) ninety minutes before the second survival biopsy was taken on day five (peak of MC proliferation). Renal biopsies were fixed in methyl Carnoy's, 10% formalin and/or OCT and snap frozen. A twenty-four hour urine collection for measurement of protein and creatinine was done from day seven to eight, when maximal proteinuria occurs in this model (unpublished observation). Blood pressure measurements were done twice before and twice after disease induction. In renal biopsies, the frequency of glomerular microaneurysms, the number of infiltrating macrophages, the number of proliferating MC, the expression of the contractile protein α-sm actin as a marker of MC-activation, and the expression of TGF-β1, TGF-β2, TGF-βRI, TGF-βRII, TSP1, as well as of extracellular matrix proteins such as collagen I, collagen IV and fibronectin were determined. For TGF-β activity measurements in individual animals on day eight, glomeruli were isolated by differential sieving (Johnson et al. (1991) Am. J. Pathol. 138 (2), 313-21) and counted using five aliquots. Glomerular isolates were discarded if purity was less than 95%. 8000 glomeruli/ml were incubated in DMEM at 37° C. After a twenty-four hour incubation period, glomerular supernatants were stored by −70° C. until TGF-β activity measurements were done.
(§4) Peptide infusion. All peptides (at a concentration of 3.5 mg/ml) were continuously infused for seven days via a catheter in the right jugular vein using osmotic minipumps (Alzet Corp./Charles River, Sulzfeld, Germany). […]

[2] = system: rats with anti-Thy1 disease; experiment: Glomerular MC-proliferation, MC-activation and macrophage influx in the anti-Thy1 model; format: in vivo, rat
Text: as §1, §2, §3, §4

[3] = system: rats with anti-Thy1 disease; experiment: Glomerular extracellular matrix formation (Masson's Trichrome, collagen I, collagen IV, fibronectin stains) in the anti-Thy1 model; format: in vivo, rat
Text: as §1, §2, §3, §4

TGF-β = experiment: Glomerular secretion of active TGF-β (NRK-bioassay of supernatants of isolated glomeruli) in anti-Thy1 rats; format: in vivo, rat
Text: as §1, §2
as §3, with “After a twenty-four hour incubation period, glomerular supernatants were stored by −70° C. until TGF-β activity measurements were done.” left out

[4] = system: rats with anti-Thy1 disease; experiment: Glomerular immunostaining score for TGF-β1, TGF-β2, TGF-βRI, TGF-βRII and TSP1 in the anti-Thy1 model; format: in vivo, rat
Text: as §1, §2, §3, §4

[5] = system: activation of TGF-β by TSP1; details: background, literature; cited from earlier work
[6] = system: rats with anti-Thy1 disease; experiment: Mesangiolysis, microaneurysm formation and GEN-proliferation in the anti-Thy1 model; format: in vivo, rat
Text: as §1, §2, §3, §4

KRFK: TGF-β activating peptide, KRFK amino acid sequence of the TSP1 molecule (listed as Homo sapiens)
histological changes in TSP1 null mice (TSP1 null mice): reverted toward wild type

Leu-Ser-Lys-Leu (LSKL; listed as Homo sapiens)
Proteinuria (mg/24 hours) ([1]; day 8 (urine collection day seven to eight)): 24 ± 20 mg/24 hours
twenty-four hour proteinuria ([1]; days seven to eight): 24±20 mg/twenty-four hours
Blood urea nitrogen ([1]; rat, in vivo): 33.2 ± 9.4 mg/dL
MC-activation α-sm actin (score 0-4) ([2]; day 3): 0.6 ± 0.3 score 0-4
MC-proliferation (OX-7 + /PCNA + cells/glomerulus) ([2]; day 3): 3.3 ± 0.6 cells/glomerulus
Macrophages (ED-1 + cells/glomerulus) ([2]; day 3): 4.3 ± 2.0 cells/glomerulus
MC-activation α-sm actin (score 0-4) ([2]; day 5): 2.5 ± 0.4 score 0-4
MC-proliferation (OX-7 + /BrdU + cells/glomerulus) ([2]; day 5): 3.9 ± 0.6 cells/glomerulus
MC-proliferation (OX-7 + /PCNA + cells/glomerulus) ([2]; day 5): 7.9 ± 1.0 cells/glomerulus
Macrophages (ED-1 + cells/glomerulus) ([2]; day 5): 1.0 ± 0.6 cells/glomerulus
MC-activation α-sm actin (score 0-4) ([2]; day 8): 2.4 ± 0.5 score 0-4
MC-proliferation (OX-7 + /PCNA + cells/glomerulus) ([2]; day 8): 4.6 ± 0.5 cells/glomerulus
Macrophages (ED-1 + cells/glomerulus) ([2]; day 8): 0.7 ± 0.5 cells/glomerulus
MC activation (de novo expression of α-sm-actin) ([2]; in words): did not significantly alter
Matrix Collagen 1 (score 0-4) ([3]; day 3): 0.1 ± 0.1 score 0-4
Matrix Collagen IV (score 0-4) ([3]; day 3): 1.0 ± 0.2 score 0-4
Matrix Fibronectin (score 0-4) ([3]; day 3): 1.2 ± 0.4 score 0-4
Matrix Trichrome (score 0-3) ([3]; day 3): 0.4 ± 0.2 score 0-3
Matrix Collagen 1 (score 0-4) ([3]; day 5): 0.7 ± 0.4 score 0-4
Matrix Collagen IV (score 0-4) ([3]; day 5): 1.9 ± 0.3 score 0-4
Matrix Fibronectin (score 0-4) ([3]; day 5): 1.9 ± 0.6 score 0-4
Matrix Trichrome (score 0-3) ([3]; day 5): 0.7 ± 0.2 score 0-3
Matrix Collagen 1 (score 0-4) ([3]; day 8): 0.8 ± 0.5 score 0-4
Matrix Collagen IV (score 0-4) ([3]; day 8): 1.2 ± 0.4 score 0-4
Matrix Fibronectin (score 0-4) ([3]; day 8): 0.9 ± 0.6 score 0-4
Matrix Trichrome (score 0-3) ([3]; day 8): 1.2 ± 0.3 score 0-3
extracellular matrix formation as determined by Trichrome staining ([3]; day eight, in words): markedly suppressed
glomerular accumulation of collagen I, collagen IV and fibronectin by immunohistochemistry ([3]; time course of anti-Thy1 disease, in words): reduced glomerular accumulation of all three extracellular matrix proteins
Active TGF-β (colonies > 62 um) (TGF-β; day 8 glomeruli, 24 h supernatant, NRK-bioassay, continuous i.v. peptide infusion): 154 ± 50 colonies > 62 um
glomerular secretion of active TGF-β compared to control peptide (SLLK) treated rats (TGF-β; day eight glomeruli, p<0.01): markedly reduced
TGF-β1 (score 0-4) ([4]; day 3): 0.1 ± 0.1 score 0-4
TGF-β2 (score 0-4) ([4]; day 3): 0.2 ± 0.1 score 0-4
TGF-βRI (score 0-4) ([4]; day 3): 0.2 ± 0.2 score 0-4
TGF-βRII (score 0-4) ([4]; day 3): 0.2 ± 0.1 score 0-4
TSP I (score 0-4) ([4]; day 3): 0.3 ± 0.2 score 0-4
TGF-β1 (score 0-4) ([4]; day 5): 1.8 ± 0.6 score 0-4
TGF-β2 (score 0-4) ([4]; day 5): 1.2 ± 0.6 score 0-4
TGF-βRI (score 0-4) ([4]; day 5): 1.4 ± 0.3 score 0-4
TGF-βRII (score 0-4) ([4]; day 5): 1.3 ± 0.3 score 0-4
TSP I (score 0-4) ([4]; day 5): 1.4 ± 0.6 score 0-4
TGF-β1 (score 0-4) ([4]; day 8): 1.7 ± 0.6 score 0-4
TGF-β2 (score 0-4) ([4]; day 8): 0.6 ± 0.6 score 0-4
TGF-βRI (score 0-4) ([4]; day 8): 1.4 ± 0.4 score 0-4
TGF-βRII (score 0-4) ([4]; day 8): 0.9 ± 0.6 score 0-4
TSP I (score 0-4) ([4]; day 8): 0.5 ± 0.3 score 0-4
block of activation of TGF-β by TSP1 [5]: able to block activation of TGF-β by TSP1
Glomerular Microaneurysm (in percent) ([6]; day 3): 16.7 ± 10.0%
Glomerular Microaneurysm (in percent) ([6]; day 5): 13.8 ± 19.9%
Glomerular Microaneurysm (in percent) ([6]; day 8): 2.2 ± 2.7%
Glomerular GEN-proliferation (double staining for RECA-1 and PCNA) ([6]; day three): 2.0±0.5
mesangiolysis scores ([6]; day three, scale 0-IV): 2.56±0.3
